The test concerns mice. Description: Neuropharmacological Assay (SmartCube). Type of test: in vivo. The conditions noted are these: for minimal effective dose: Mus musculus, MED = dose having 50% or more total activity in SmartCube, read-out: POTENCY (minimal effective dose, MED); for AD: ADHD (SmartCube probability) / AG: analgesic (SmartCube probability) / AX: anxiolytic (SmartCube probability) / CE: cognitive enhancer (SmartCube probability) / DP: anti-depressant (SmartCube probability) / MS: mood stabilizer (SmartCube probability) / PS: anti-psychotic (SmartCube probability) / SD: sedative hypnotic (SmartCube probability) / UN: uncharacterized CNS activity (SmartCube probability): mice, i.p. 15 min before test, most efficacious dose(s) of 3 doses. An excerpt:
Neuropharmacological Assay (SmartCube™)
Neurosci. 2011 Sep. 9; 5:103 (doi: 10.3389/fnins.2011.00103) (“Roberds”). As reported in Roberds, because psychiatric diseases generally result from disorders of cell-cell communication, circuitry, intact systems are useful in detecting improvement in disease-relevant endpoints. These endpoints are typically behavioral in nature, often requiring human observation and interpretation. To facilitate testing of multiple compounds for behavioral effects relevant to psychiatric disease, PsychoGenics, Inc. (Tarrytown, N.Y., “PGI”) developed SmartCube™, an automated system in which behaviors of compound-treated mice are captured by digital video and analyzed with computer algorithms. (D. Brunner et al., Drug Discov. Today 2002, 7:S107-S112). PGI Analytical Systems uses data from SmartCube™ to compare the behavioral signature of a test compound to a database of behavioral signatures obtained using a large set of diverse reference compounds. (The composition of the database as well as validation of the method is further described in Roberds). In this way, the neuropharmacological effects of a test compound can be predicted by similarity to major classes of compounds, such as antipsychotics, anxiolytics and antidepressants.
The SmartCube™ system produces an activity signature indicating the probability that the activity of the test compound at the administered dose matches a given class of neuropharmacological agents. (See, e.g., Roberds, FIGS. 2 and 3). The test compound is simultaneously compared against multiple classes of agents; thus, a separate probability is generated for each behavioral effect measured (e.g., anxiolytic activity, analgesic activity, etc.). In the table below, these probabilities are reported for each behavioral effect measured as follows:
where LOQ is the limit of quantification.
Provided compounds were dissolved in a mixture of Pharmasolve™ (N-methyl-2-pyrrolidone), polyethylene glycol and propylene glycol, and were injected i.p. 15 min. before the behavioral test. For each compound, injections were administered at 3 different doses. For each behavioral effect measured, results for the most efficacious dose(s) are presented. In the table below, DP: anti-depressant; AX: anxiolytic; SD: sedative hypnotic; PS: anti-psychotic; MS: mood stabilizer; AD: ADHD; CE: cognitive enhancer; AG: analgesic; UN: uncharacterized CNS activity.
The potency of many of the compounds in the table was also determined in the SmartCube™ system. Test compounds were routinely examined at dose levels of 0.3, 1, 3 10 and 30 mg per kg (mpk), although the dose range was increased or decreased if necessary to obtain a full dose response curve. A compound's minimal effective dose (MED) is a measure of the compounds potency. The MED was defined as the dose (in mpk) having 50% or more total activity in SmartCube.

The source of these data is US10196403B2, “Compounds and compositions and uses thereof” (Sunovion Pharmaceuticals Inc., priority 2016, dated 2019).

Structures are written as SMILES.

On to `CNC[C@H]1OCCc2c1cccc2C(F)(F)F` [Example 78, (S)-N-methyl-1-(5-(trifluoromethyl)isochroman-1-yl)-methanamine], for which the minimal effective dose (commonly the smallest amount tested that counted as effective) lay within 10 to 30 mg/kg, the “AD: ADHD (SmartCube probability)” value is “+ (LOQ≤ + <5%)”, the “AG: analgesic (SmartCube probability)” value is “++ (5%≤ ++ <25%)” and the “AX: anxiolytic (SmartCube probability)” value is on record as “++ (5%≤ ++ <25%)”. The “CE: cognitive enhancer (SmartCube probability)” value (“CE: cognitive enhancer” below) was “+ (LOQ≤ + <5%)”, the “DP: anti-depressant (SmartCube probability)” value (“DP: anti-depressant” below) is given as “++ (5%≤ ++ <25%)”, the “MS: mood stabilizer (SmartCube probability)” value (“MS: mood stabilizer” for short) is “+ (LOQ≤ + <5%)” and the “PS: anti-psychotic (SmartCube probability)” value (from here on “PS: anti-psychotic”) is given as “+ (LOQ≤ + <5%)”. Moreover, the “SD: sedative hypnotic (SmartCube probability)” value (“SD: sedative hypnotic” for short) was “+ (LOQ≤ + <5%)” and the “UN: uncharacterized CNS activity (SmartCube probability)” value (“UN: uncharacterized CNS activity” below) is listed as “++++ (50%≤ ++++)”.

As for `CNC[C@@H]1OCCc2cccc(C#N)c21` [Example 45, (R)-1-((methylamino)methyl)isochromane-8-carbonitrile], the minimal effective dose was in the range of 3 to 10 mg/kg, the “AD: ADHD (SmartCube probability)” value was “+ (LOQ≤ + <5%)”, the “AG: analgesic (SmartCube probability)” value was “++ (5%≤ ++ <25%)” and the “AX: anxiolytic (SmartCube probability)” value is “++ (5%≤ ++ <25%)”. For the same compound, the “CE: cognitive enhancer” value is “++ (5%≤ ++ <25%)”, the “DP: anti-depressant” value was “+ (LOQ≤ + <5%)”, the “MS: mood stabilizer” value is “+ (LOQ≤ + <5%)” and the “PS: anti-psychotic” value is recorded as “++ (5%≤ ++ <25%)”. The “SD: sedative hypnotic” value is reported as “+ (LOQ≤ + <5%)” and the “UN: uncharacterized CNS activity” value was “++++ (50%≤ ++++)”.

Turning to `CNC[C@H]1OCC(C)(C)c2ccccc21` [Example 23, (S)-1-(4,4-dimethylisochroman-1-yl)-N-methylmethanamine], the minimal effective dose was in the range of 3 to 10 mg/kg, the “AD: ADHD (SmartCube probability)” value is recorded as “+ (LOQ≤ + <5%)”, the “AG: analgesic (SmartCube probability)” value is “++ (5%≤ ++ <25%)” and the “AX: anxiolytic (SmartCube probability)” value was “++ (5%≤ ++ <25%)”. Further, the “CE: cognitive enhancer” value is listed as “++ (5%≤ ++ <25%)”, the “DP: anti-depressant” value is listed as “++ (5%≤ ++ <25%)”, the “MS: mood stabilizer” value is recorded as “+ (LOQ≤ + <5%)” and the “PS: anti-psychotic” value is given as “+++ (25%≤ +++ <50%)”. For the same compound, the “SD: sedative hypnotic” value is listed as “++ (5%≤ ++ <25%)” and the “UN: uncharacterized CNS activity” value is “+ (LOQ≤ + <5%)”.

For `CNC[C@@H]1OCCc2cc(Cl)ccc21` [Example 81, (R)-1-(6-chloroisochroman-1-yl)-N-methylmethanamine], the minimal effective dose is less than 3 mg/kg, the “AD: ADHD (SmartCube probability)” value is “++ (5%≤ ++ <25%)”, the “AG: analgesic (SmartCube probability)” value is “+ (LOQ≤ + <5%)” and the “AX: anxiolytic (SmartCube probability)” value was “++ (5%≤ ++ <25%)”. The “CE: cognitive enhancer” value was “+ (LOQ≤ + <5%)”, the “DP: anti-depressant” value was “++++ (50%≤ ++++)”, the “MS: mood stabilizer” value is reported as “+ (LOQ≤ + <5%)” and the “PS: anti-psychotic” value was “+ (LOQ≤ + <5%)”. The “SD: sedative hypnotic” value was “+ (LOQ≤ + <5%)” and the “UN: uncharacterized CNS activity” value is recorded as “++ (5%≤ ++ <25%)”.

`CNC[C@H]1OCCc2ccc3c(c21)OCC3` [Example 106, (S)-N-methyl-1-(2,3,6,9-tetrahydro-7H-furo[3,2-h]isochromen-9-yl)methanamine]: the minimal effective dose was in the range of 10 to 30 mg/kg, the “AD: ADHD (SmartCube probability)” value is “+ (LOQ≤ + <5%)”, the “AG: analgesic (SmartCube probability)” value was “+ (LOQ≤ + <5%)” and the “AX: anxiolytic (SmartCube probability)” value was “++ (5%≤ ++ <25%)”. In addition, the “CE: cognitive enhancer” value is listed as “+++ (25%≤ +++ <50%)”, the “DP: anti-depressant” value is recorded as “++ (5%≤ ++ <25%)”, the “MS: mood stabilizer” value is recorded as “+ (LOQ≤ + <5%)” and the “PS: anti-psychotic” value is “++ (5%≤ ++ <25%)”. Further, the “SD: sedative hypnotic” value is “++ (5%≤ ++ <25%)” and the “UN: uncharacterized CNS activity” value is “+ (LOQ≤ + <5%)”.
